{"source": "ChEMBL document CHEMBL1159389", "about": "“Ulongapeptin, a cytotoxic cyclic depsipeptide from a Palauan marine cyanobacterium Lyngbya sp” (J Nat Prod, 2003)", "tested_on": "KB", "assay": "Cytotoxicity against human KB cells", "assay_type": "functional, cell-based", "note": "pIC50: −log10 of the molar value.", "data": [{"compound": "C#CCCC[C@@H]1NC(=O)[C@H](C(C)C)NC(=O)[C@@H](Cc2ccccc2)N(C)C(=O)[C@@H](C(C)C)N(C)C(=O)[C@H](C(C)C)NC(=O)[C@H](C(C)C)N(C)C(=O)[C@H](C)OC(=O)[C@H]1C", "note": "[ULONGAPEPTIN]", "values": [{"measurement": "pIC50", "result": 6.20}]}]}
